Where two headings read alike, the source gives them in different places.
What was measured:
[1] = Stability test in liver microsomes, mouse; assay type: in vitro ADME; conditions: for half-life at 1 μM: 0.5 mg/mL
Method: (§1) A stability of the compound of the present application in liver microsomes of human, rat and mouse was measured.
(§2) 3.1 A buffer and a liver microsome were prepared into an incubation solution according to the following table:
(§3) 3.2 The following two experiments were carried out respectively: a) incubation system added with coenzyme factor NADPH: 25 μL of NADPH (10 mM) was added into an incubation solution (mainly comprising a liver microsome and a phosphate buffer), so that final concentrations of the liver microsome and the NADPH were 0.5 mg/mL and […] respectively; and b) incubation system without coenzyme factor NADPH: 25 μL of phosphate buffer (100 mM) was added into the incubation solution, so that the final concentration of the liver microsome was 0.5 mg/mL. The incubation systems above were preheated at 37° C. for 10 minutes respectively.
(§4) 3.3 2.5 μL of positive control compound or a tested compound solution (100 μM) was added into the incubation systems described in “step 3.2” above respectively for reaction, and the positive control compound was verapamil (purchased from Sigma), so that a final concentration of the tested compound of the present application or the positive control compound was 1 μM. The incubation solution added with the compound was incubated in water at 37° C. in batches.
(§5) 3.4 30 μL of aliquot was taken from a reaction solution after 0.5 minute, 5 minutes, 15 minutes, 30 minutes and 45 minutes respectively, and the reaction was terminated by adding 5 times volume of cold acetonitrile containing 200 nM caffeine and 100 nM tolbutamide. The aliquot was centrifuged at a gravity acceleration of 3,220 g for 40 minutes, and 100 μL of supernatant was mixed with 100 μL of ultrapure water, and then used for LC-MS/MS analysis.
(§6) A peak area was determined by an extracted ion chromatogram. A slope value k was determined by linear regression of a remaining percentage of a parent drug relative to […] an incubation time curve.
(§7) In-vitro half-life periods (t1/2) were respectively calculated and determined according to the slope value, and an average value of the in-vitro half-life periods was converted into an in-vitro intrinsic clearance rate (CLint, represented by μL/min/mg protein).

[2] = Stability test in liver microsomes, human; assay type: in vitro ADME; conditions: for half-life at 1 μM: 0.5 mg/mL
Method: as §1, §2, §3, §4, §5, §6, §7

[3] = Stability test in liver microsomes, rat; assay type: in vitro ADME; conditions: for half-life at 1 μM: 0.5 mg/mL
Method: as §1, §2, §3, §4, §5, §6, §7

TRKA(G595R) = TRKA(G595R) (Homo sapiens (Human), UniProt P04629, G595R); assay: Kinase inhibitory activity (Caliper mobility shift), TRKA(G595R); assay type: biochemical
Method: (§8) […] (Shanghai) Co., Ltd. was commissioned to complete the testing example. […] 3.1 A tested compound was accurately weighed and dissolved in 100% DMSO to prepare into a 10 mM solution. […] 3.2.3 A kinase solution of 2.5 times final concentration was prepared with 1×kinase buffer. […] 3.2.5 The reaction plate was shaken and mixed evenly, and then incubated at room temperature for 10 minutes. 3.2.6 Mixed solutions of ATP and kinase substrate 22 of 5 times and 3 times final concentrations were prepared with 1×kinase buffer. 3.2.7 15 μL of mixed solution of ATP and substrate of 5 times or 3 times final concentration was added. 3.2.8 The 384-well plate was centrifuged at 1,000 rpm for 30 seconds, shaken and mixed evenly, and then incubated at room temperature for corresponding time. 3.2.9 The kinase reaction was terminated. 3.2.10 A conversion rate was read by the microplate reader Caliper EZ Reader. Calculation Formula Inhibition rate %=(conversion rate % maximum-conversion rate % sample)/(conversion rate % maximum-conversion rate % minimum)×100 wherein the conversion rate % sample was: a reading number of a conversion rate of a sample; the conversion rate % minimum was: an average value of the negative control well, which represented a reading number of a conversion rate without an enzyme activity well; and the conversion rate % maximum was: an average value of a ratio of the positive control well, which represented a reading number of a conversion rate without a compound inhibition well.

Ba/F3 EVT6-NTRK3-G623R = assay: In-vitro cell viability (CTG), NTRK mutant cells; assay type: cell-based; conditions: Mus musculus, read-out: Ba/F3 EVT6-NTRK3-G623R IC50
Method: (§9) Hefei Precedo Biomedical Technology Co., Ltd. was commissioned to complete the testing example, and NTRK mutant cells used were constructed by this company.
(§10) Inhibitory effects of the compound of the present application on growth of three NTRK mutant cells (Ba/F3 LMNA-NTRK1-G667C, Ba/F3 EVT6-NTRK3-G623R and Ba/F3 LMNA-NTRK1-G595R) were measured.
(§11) Cells in logarithmic growth phase were collected and counted by a blood platelet counter, a cell concentration was adjusted to 3 to 6×10^4 cell/mL, 90 μL of cell suspension was added into a 96-well plate, and cells in the 96-well plate were cultured at 37° C. under 5% CO2 and 95% humidity overnight.
(§12) The to-be-tested compound was prepared into a 10 times drug solution in a medium containing 1% DMSO, with […] and the drug solution was diluted by 3 times in sequence to obtain drug solutions with 9 concentrations in total. […] 10 μL of prepared drug solution was added into each well of the 96-well plate in which the cells were inoculated. Then, 90 μL of medium containing 1% DMSO was added to obtain a drug solution with a highest concentration of 1 μM, and the drug solution was diluted by 3 times in sequence to obtain drug solutions with 9 concentrations in total. A final concentration of DMSO in each well was 0.1%, and three multiple wells were provided for the drug of each concentration. The cells in the 96-well plate in which the drug has been added were cultured at 37° C. under 5% CO2 and 95% humidity for 72 hours, and then subjected to CTG analysis.
(§13) An equal volume of CTG solution was added into each well, the 96-well plate was placed at room temperature for 20 minutes to stabilize a luminescence signal, and a luminescence value was read.
(§14) Data was analyzed by GraphPad Prism 7.0 software, and fitted by nonlinear S-curve regression to obtain a dose-effect curve, from which an IC50 value was calculated. Cell survival rate (%)=(Lum to-be-tested drug−Lum medium control)/(Lum cell control−Lum medium control)×100%.

Ba/F3 LMNA-NTRK1-G667C = assay: In-vitro cell viability (CTG), NTRK mutant cells; assay type: cell-based; conditions: Mus musculus, read-out: Ba/F3 LMNA-NTRK1-G667C IC50
Method: as §9, §10, §11, §12, §13, §14

Ba/F3 LMNA-NTRK1-G595R = assay: In-vitro cell viability (CTG), NTRK mutant cells; assay type: cell-based; conditions: Mus musculus, read-out: Ba/F3 LMNA-NTRK1-G595R IC50
Method: as §9, §10, §11, §12, §13, §14

TRKC(G623R) = TRKC(G623R) (Homo sapiens (Human), UniProt Q16288, G623R); assay: Kinase inhibitory activity (Caliper mobility shift), TRKC(G623R); assay type: biochemical
Method: Sundia Meditech (Shanghai) Co., Ltd. was commissioned to complete the testing example.
3.1 A tested compound was accurately weighed and dissolved in 100% DMSO to prepare into a 10 mM solution.
250 nL of the compound of 100 times final concentration was transferred to a reaction plate OptiPlate-384F by a dispenser Echo 550.
3.2.3 A kinase solution of 2.5 times final concentration was prepared with 1×kinase buffer.
3.2.4 10 μL of kinase solution of 2.5 times final concentration was added into a compound well and a positive control well respectively; and 10 μL of 1×kinase buffer was added into a negative control well.
3.2.5 The reaction plate was shaken and mixed evenly, and then incubated at room temperature for 10 minutes.
3.2.6 Mixed solutions of ATP and kinase substrate 22 of 5 times and 3 times final concentrations were prepared with 1×kinase buffer.
3.2.7 15 μL of mixed solution of ATP and substrate of 5 times or 3 times final concentration was added.
3.2.8 The 384-well plate was centrifuged at 1,000 rpm for 30 seconds, shaken and mixed evenly, and then incubated at room temperature for corresponding time.
3.2.9 The kinase reaction was terminated.
3.2.10 A conversion rate was read by the microplate reader Caliper EZ Reader.
Calculation Formula Inhibition rate %=(conversion rate % maximum−conversion rate % sample)/(conversion rate % maximum−conversion rate % minimum)×100
wherein the conversion rate % sample was: a reading number of a conversion rate of a sample; the conversion rate % minimum was: an average value of the negative control well, which represented a reading number of a conversion rate without an enzyme activity well; and the conversion rate % maximum was: an average value of a ratio of the positive control well, which represented a reading number of a conversion rate without a compound inhibition well.
Fitting of dose-effect curve: a log value of concentration was used as an X axis, a percentage inhibition rate was used as a Y axis, and the dose-effect curve was fitted by a log (inhibitor) vs. response-variable slope of the analysis software GraphPad Prism 5 (four-parameter model fitting), so as to obtain an IC50 value of each compound on enzyme activity.

TRKa = TRKa (Homo sapiens (Human), UniProt P04629); assay: Kinase inhibitory activity (Caliper mobility shift), TRKa; assay type: biochemical
Method: as §8

TRKA(G595R), sequence (P04629 33-796 G595R): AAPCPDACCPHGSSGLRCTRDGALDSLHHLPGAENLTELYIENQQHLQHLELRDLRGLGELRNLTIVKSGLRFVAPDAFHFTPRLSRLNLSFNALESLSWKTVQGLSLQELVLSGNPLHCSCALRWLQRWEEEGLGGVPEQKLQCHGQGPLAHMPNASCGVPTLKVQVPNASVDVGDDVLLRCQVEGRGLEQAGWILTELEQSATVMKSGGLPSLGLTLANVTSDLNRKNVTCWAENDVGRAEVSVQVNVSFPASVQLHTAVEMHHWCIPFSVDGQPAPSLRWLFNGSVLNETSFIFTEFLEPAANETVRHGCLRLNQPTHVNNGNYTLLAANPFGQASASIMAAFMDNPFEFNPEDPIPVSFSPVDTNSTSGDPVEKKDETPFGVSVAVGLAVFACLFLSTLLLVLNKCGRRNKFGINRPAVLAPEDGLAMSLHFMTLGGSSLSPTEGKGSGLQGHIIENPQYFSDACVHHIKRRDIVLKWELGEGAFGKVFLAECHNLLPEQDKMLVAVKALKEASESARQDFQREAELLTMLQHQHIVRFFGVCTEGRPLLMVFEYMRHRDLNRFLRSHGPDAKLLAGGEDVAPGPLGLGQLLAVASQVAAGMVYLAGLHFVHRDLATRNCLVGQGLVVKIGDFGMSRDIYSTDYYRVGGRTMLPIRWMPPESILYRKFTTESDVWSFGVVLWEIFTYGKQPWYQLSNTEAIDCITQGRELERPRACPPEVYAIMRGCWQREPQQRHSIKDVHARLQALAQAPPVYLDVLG
TRKa, sequence (P04629 33-796): as the sequence (P04629 33-796 G595R) above, with R563G counted along it
TRKC(G623R), sequence (Q16288 32-839 G623R): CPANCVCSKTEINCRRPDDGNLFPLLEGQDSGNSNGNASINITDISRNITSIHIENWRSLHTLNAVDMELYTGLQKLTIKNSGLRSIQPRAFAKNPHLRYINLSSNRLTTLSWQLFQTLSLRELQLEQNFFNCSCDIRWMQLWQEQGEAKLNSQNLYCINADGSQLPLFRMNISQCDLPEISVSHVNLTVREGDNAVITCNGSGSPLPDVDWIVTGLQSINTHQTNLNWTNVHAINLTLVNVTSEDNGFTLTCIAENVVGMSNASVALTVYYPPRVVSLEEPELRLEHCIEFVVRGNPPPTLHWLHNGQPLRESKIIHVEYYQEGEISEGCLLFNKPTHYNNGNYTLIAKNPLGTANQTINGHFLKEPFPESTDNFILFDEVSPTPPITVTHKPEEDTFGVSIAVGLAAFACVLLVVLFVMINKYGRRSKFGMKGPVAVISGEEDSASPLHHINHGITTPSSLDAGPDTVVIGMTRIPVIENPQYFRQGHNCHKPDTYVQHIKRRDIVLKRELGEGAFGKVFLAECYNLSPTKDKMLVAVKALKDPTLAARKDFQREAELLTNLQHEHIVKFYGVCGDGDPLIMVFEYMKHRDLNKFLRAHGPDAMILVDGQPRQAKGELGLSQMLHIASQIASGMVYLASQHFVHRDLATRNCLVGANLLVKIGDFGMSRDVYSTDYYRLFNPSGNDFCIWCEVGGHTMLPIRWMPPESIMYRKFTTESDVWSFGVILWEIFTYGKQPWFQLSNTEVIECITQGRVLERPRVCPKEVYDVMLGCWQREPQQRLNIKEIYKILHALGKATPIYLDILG

Row | SMILES | microsomal CLint at 1 μM [1] [µL/min/mg] | half-life at 1 μM [1] [min] | % Remaining(45 min) [1] [%] | microsomal CLint at 1 μM [2] [µL/min/mg] | half-life at 1 μM [2] [min] | % Remaining(45 min) [2] [%] | microsomal CLint at 1 μM [3] [µL/min/mg] | half-life at 1 μM [3] [min] | % Remaining(45 min) [3] [%] | IC50 (TRKA(G595R)) [nM] | IC50 (Ba/F3 EVT6-NTRK3-G623R; BaF3, 72 h) [nM] | IC50 (Ba/F3 LMNA-NTRK1-G667C; BaF3, 72 h) [nM] | IC50 (Ba/F3 LMNA-NTRK1-G595R; BaF3, 72 h) [nM] | IC50 (TRKC(G623R)) [nM] | IC50 (TRKa) [nM] | IC50 (Ba/F3 EVT6-NTRK3-G623R; BaF3, 72 hours, CTG) [nM] | IC50 (Ba/F3 LMNA-NTRK1-G667C; BaF3, 72 hours, CTG) [nM] | IC50 (Ba/F3 LMNA-NTRK1-G595R; BaF3, 72 hours, CTG) [nM] | CLint [2] [µL/min/mg]
1 | C[C@@H]1CCc2ncc(F)cc2[C@H]2CCCN2c2nc3c(cnn3cc2F)C(=O)N1 [Example 1] | 82.7 | 16.8 | 16.15 | 170 | 8.17 | 4.24 | 189 | 7.35 | 3.30 | 2.5 | 190 | 5.9 | 13 | 3.7 | 0.62 | – | – | – | –
2 | C[C@H]1Nc2nc3c(cnn3cc2F)C(=O)NC2CC(C2)Oc2ncccc21 [Example 5, (3^1S,3^3S,6^3E,6^4E,8R)-6^6-fluoro-8-methyl-2-oxo-4,7-diaza-6(3,5)-pyrazolo[1,5-a]pyrimidine-1(2,3)-pyridine-3(1,3)-cyclobutylcyclooctane-5-one] | – | – | – | – | – | – | – | – | – | 561 | – | – | – | > 1000 | 127 | > 1000 | > 1000 | > 1000 | –
3 | C[C@H]1Nc2ccn3nc(F)c(c3n2)C(=O)N[C@H]2C[C@H](C2)Oc2ncc(F)cc21 [Example 6, (3^1S,3^3S,6^3Z,6^4E,8R)-1^5,6^2-difluoro-8-methyl-2-oxo-4,7-diaza-6(3,5)-pyrazolo[1,5-a]pyrimidine-1(2,3)-pyridine-3(1,3)-cyclobutylcyclooctane-5-one] | – | – | – | – | – | – | – | – | – | 2.9 | – | – | – | 8.2 | 0.52 | 536 | 40 | 116 | –
4 | C[C@H]1Nc2ccn3ncc(c3n2)C(=O)N[C@H]2C[C@H](C2)Oc2ncccc21 [Example 4, (3^1S,3^3S,6^3E,6^4E,8R)-8-methyl-2-oxo-4,7-diaza-6(3,5)-pyrazolo[1,5-a]pyrimidine-1(2,3)-pyridine-3(1,3)-cyclobutylcyclooctane-5-one] | – | – | – | – | – | – | – | – | – | > 1000 | – | – | – | > 1000 | 320 | > 1000 | > 1000 | > 1000 | –
5 | C[C@@H]1CCc2ncc(F)cc2[C@H]2CCCN2c2ccn3ncc(c3n2)C(=O)N1 [LOXO-195, reference compound] | 186 | 7.45 | 1.98 | – | 16.8 | 16.23 | 152 | 9.12 | 4.88 | – | – | – | – | – | – | 145 | 6.3 | 12 | 82.65
